Test results from article PMC3085482, “Phosphorylation-Dependent Differential Regulation of Plant Growth, Cell Death, and Innate Immunity by the Regulatory Receptor-Like Kinase BAK1” (PLoS Genetics, 2011).

What was measured:
EFR CD (MBP-EFR) = biological target: T1, EFR CD (MBP-EFR) (Arabidopsis thaliana, UniProt C0LGT6); test: in vitro kinase assay with […]-γ-ATP, SDS-PAGE autoradiography; type: biochemical; details: 1 µM unlabelled ATP plus [32P]-γ-ATP; labelled compound; myelin basic protein; 10 mM MgCl2, 10 mM MnCl2, pH 7.5, 30 °C
T1 sequence (C0LGT6 682-1031): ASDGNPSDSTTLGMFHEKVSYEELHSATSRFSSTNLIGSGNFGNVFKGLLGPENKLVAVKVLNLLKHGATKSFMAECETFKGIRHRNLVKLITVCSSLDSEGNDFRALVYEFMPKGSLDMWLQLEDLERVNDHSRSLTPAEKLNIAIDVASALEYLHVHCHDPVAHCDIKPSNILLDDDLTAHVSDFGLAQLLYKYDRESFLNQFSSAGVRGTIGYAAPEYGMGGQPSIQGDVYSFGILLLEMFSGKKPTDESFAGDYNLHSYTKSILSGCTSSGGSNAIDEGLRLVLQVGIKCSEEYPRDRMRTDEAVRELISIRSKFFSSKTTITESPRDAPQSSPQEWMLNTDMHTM

BRI1 CD (MBP-BRI1) = biological target: T2, BRI1 CD (MBP-BRI1) (Arabidopsis thaliana, UniProt O22476); test: as above; type: biochemical; details: 1 µM unlabelled ATP plus [32P]-γ-ATP; labelled compound; myelin basic protein; 10 mM MgCl2, 10 mM MnCl2, pH 7.5, 30 °C
T2 sequence (O22476 814-1196): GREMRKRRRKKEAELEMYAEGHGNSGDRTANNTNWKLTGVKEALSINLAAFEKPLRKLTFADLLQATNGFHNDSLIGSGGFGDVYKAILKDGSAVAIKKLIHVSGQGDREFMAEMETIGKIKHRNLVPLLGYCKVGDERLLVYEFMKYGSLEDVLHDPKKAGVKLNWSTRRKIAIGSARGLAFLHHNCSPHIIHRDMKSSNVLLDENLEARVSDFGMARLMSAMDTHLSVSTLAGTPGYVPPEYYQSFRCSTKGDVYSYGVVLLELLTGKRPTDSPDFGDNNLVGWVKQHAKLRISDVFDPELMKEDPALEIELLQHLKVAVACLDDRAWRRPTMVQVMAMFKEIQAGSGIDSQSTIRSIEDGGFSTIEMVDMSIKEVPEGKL

[1] = substrate: Nc1ncnc2c1ncn2[C@@H]1O[C@H](COP(=O)(O)OP(=O)(O)OP(=O)(O)O)[C@@H](O)[C@H]1O; test: autophosphorylation over ATP range, PVDF blot autoradiography (PhosphorImager); type: biochemical, Arabidopsis thaliana

## Nc1ncnc2c1ncn2[C@@H]1O[C@H](COP(=O)(O)OP(=O)(O)OP(=O)(O)O)[C@@H](O)[C@H]1O [ATP]
EFR CD (MBP-EFR)
  in vitro kinase assay with [32P]-γ-ATP, SDS-PAGE autoradiography: EFR CD possessed only minor auto-phosphorylation capacity
BRI1 CD (MBP-BRI1)
  in vitro kinase assay with [32P]-γ-ATP, SDS-PAGE autoradiography: BRI1 CD had a very strong auto- and trans-phosphorylation capacity

B1: BAK1 CD (GST-BAK1) (Arabidopsis thaliana) (protein)
chain: DHFFDVPAEEDPEVHLGQLKRFSLRELQVASDNFSNKNILGRGGFGKVYKGRLADGTLVAVKRLKEERTQGGELQFQTEVEMISMAVHRNLLRLRGFCMTPTERLLVYPYMANGSVASCLRERPESQPPLDWPKRQRIALGSARGLAYLHDHCDPKIIHRDVKAANILLDEEFEAVVGDFGLAKLMDYKDTHVTTAVRGTIGHIAPEYLSTGKSSEKTDVFGYGVMLLELITGQRAFDLARLANDDDVMLLDWVKGLLKEKKLEALVDVDLQGNYKDEEVEQLIQVALLCTQSSPMERPKMSEVVRMLEGDGLAERWEEWQKEEMFRQDFNYPTHHPAVSGWIIGDSTSQIENEYPSGPR
notes: cytoplasmic domain residues 256-615, N-terminal GST tag kept (pGEX-4T1), E. coli BL21, glutathione purified
[1]; autophosphorylation of GST-BAK1 CD
  Km: ∼7 µM

B2: BAK1 CD (GST-BAK1) (Arabidopsis thaliana; C408Y) (protein)
chain: DHFFDVPAEEDPEVHLGQLKRFSLRELQVASDNFSNKNILGRGGFGKVYKGRLADGTLVAVKRLKEERTQGGELQFQTEVEMISMAVHRNLLRLRGFCMTPTERLLVYPYMANGSVASCLRERPESQPPLDWPKRQRIALGSARGLAYLHDHYDPKIIHRDVKAANILLDEEFEAVVGDFGLAKLMDYKDTHVTTAVRGTIGHIAPEYLSTGKSSEKTDVFGYGVMLLELITGQRAFDLARLANDDDVMLLDWVKGLLKEKKLEALVDVDLQGNYKDEEVEQLIQVALLCTQSSPMERPKMSEVVRMLEGDGLAERWEEWQKEEMFRQDFNYPTHHPAVSGWIIGDSTSQIENEYPSGPR
notes: as for B1
[1]; autophosphorylation of GST-BAK1 CD (BAK1-5 protein)
  Km: ∼25 µM
